We go through 11 molecules from ChEMBL document CHEMBL1138749, “N-Phenyl-4-pyrazolo[1,5-b]pyridazin-3-ylpyrimidin-2-amines as potent and selective inhibitors of glycogen synthase kinase 3 with good cellular efficacy” (J Med Chem, 2004).

Test [1] concerns the target Glycogen synthase kinase-3 beta (Rattus norvegicus, UniProt P18266). Kind of test: Effective concentration to increase glycogen deposition in rat skeletal muscle L6 myoblast cells. The class given is functional, cell-based.
For test [2], the target named is Glycogen synthase kinase-3 beta (Homo sapiens, UniProt P49841).
Chain of Glycogen synthase kinase-3 beta (Homo sapiens, UniProt P49841) (P49841 whole entry): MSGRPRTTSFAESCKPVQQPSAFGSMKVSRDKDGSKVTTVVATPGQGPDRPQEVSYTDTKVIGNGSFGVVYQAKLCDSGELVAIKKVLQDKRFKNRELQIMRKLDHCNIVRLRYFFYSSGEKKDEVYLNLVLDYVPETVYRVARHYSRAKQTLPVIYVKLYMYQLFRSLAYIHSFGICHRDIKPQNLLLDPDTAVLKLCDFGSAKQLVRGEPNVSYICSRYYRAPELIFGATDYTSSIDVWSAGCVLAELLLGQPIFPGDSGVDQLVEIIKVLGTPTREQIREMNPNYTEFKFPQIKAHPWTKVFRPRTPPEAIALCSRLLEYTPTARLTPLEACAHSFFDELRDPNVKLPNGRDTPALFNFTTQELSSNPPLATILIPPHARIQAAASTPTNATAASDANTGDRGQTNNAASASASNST
Description: Binding affinity for human glycogen synthase kinase 3 beta
The target in test [3] is Cyclin-dependent kinase 2 (Homo sapiens, UniProt P24941).

One may read the EC50 as the concentration needed to bring the measured effect to its halfway point. A high value points to weaker potency. Broadly, the IC50 is the point on the concentration scale where inhibition reaches its midpoint.

Molecules are shown by their SMILES.

Chain of Glycogen synthase kinase-3 beta (Rattus norvegicus, UniProt P18266) (P18266 whole entry): as the sequence (P49841 whole entry) above, with V240M, T390P, T392A, A400T, T402A counted along it

`Cc1ccc2c(-c3ccnc(Nc4ccccc4)n3)c(-c3ccccc3)nn2n1` came in with an EC50 in test [1] of 3600 nM. The molecule also gave an IC50 in test [2] of 50 nM.

In test [3], `COc1cc(Nc2nccc(-c3cnn4ncccc34)n2)cc(C(F)(F)F)c1` displayed an IC50 of 10 nM. The molecule also had an EC50 in test [1] of 1200 nM.

For `Cc1ccc2c(-c3ccnc(Nc4ccc(F)c(F)c4)n3)c(-c3ccccc3)nn2n1`, the values for the IC50 in test [3] and in test [2] were > 20000 nM and 30 nM, respectively. Besides, the midpoint of the response in test [1], the EC50, lay at 3400 nM.

Take `Fc1ccc(-c2nn3ncccc3c2-c2ccnc(Nc3cccc(C(F)(F)F)c3)n2)cc1`: the IC50 was > 20000 nM in test [3] and 20 nM in test [2]. For the same molecule, the EC50 in test [1] came out at 2800 nM.

Turning to `Fc1ccc(Nc2nccc(-c3c(-c4ccccc4)nn4ncccc34)n2)cc1F`, the figures for the IC50 in test [3] and in test [2] were > 20000 nM and 10 nM, respectively. Besides, the EC50 in test [1] was 4200 nM.

Molecule `FC(F)(F)c1cc(Nc2nccc(-c3cnn4ncccc34)n2)ccc1Cl` displayed an IC50 in test [3] of 10 nM. The molecule also had an EC50 in test [1] of 1000 nM.

Turning to `FC(F)(F)c1cccc(Nc2nccc(-c3c(-c4ccccc4)nn4ncccc34)n2)c1`, the concentration for half-maximal inhibition (IC50) in test [3] was > 20000 nM; in test [2], 10 nM. The molecule further returned a 50% effective concentration (EC50) in test [1] of 2100 nM.

`Fc1cc(F)cc(Nc2nccc(-c3cnn4ncccc34)n2)c1` displayed an IC50 in test [3] of 1 nM. Moreover, the EC50 in test [1] was determined as 1000 nM.

For `Cc1ccc2c(-c3ccnc(Nc4cccc(C(F)(F)F)c4)n3)c(-c3ccc(F)cc3)nn2n1`, the IC50 is > 20000 nM in test [3] and 20 nM in test [2]. In test [1], this molecule yielded an EC50 of 6800 nM.

In the case of `c1ccc(Nc2nccc(-c3c(-c4ccccc4)nn4ncccc34)n2)cc1`, the IC50 in test [3] worked out at 3980 nM; in test [2] it was 10 nM. This molecule also registered a 50% effective concentration (EC50) in test [1] of 1600 nM.

In the case of `COc1ccc(Nc2nccc(-c3cnn4ncccc34)n2)cc1OC` [PYRAZOLOPYRIDAZINE 2], the figures for the IC50 in test [3] and in test [2] were 50 nM and 10 nM, respectively. Moreover, the response in test [1] was half-maximal at 1500 nM (EC50).
